Measurements from article PMC4301037, “Identification and Structure–Function Analysis of Subfamily Selective G Protein-Coupled Receptor Kinase Inhibitors” (ACS Chemical Biology, 2014).
Like-named read-outs stand apart in the source and are kept apart here.

Legend:
[1] = molecular target: T1, PKA (Mus musculus, UniProt P05132); test: PKA inhibition assay (ADP-Glo, CREBtide, 100 μM ATP); assay type: biochemical
T1 construct: His tag (inferred from pET15b vector and Ni-NTA column) (N); host or cells: E. coli Rosetta(DE3)pLysS

[2] = molecular target: T2, human GRK2S670A (Homo sapiens, UniProt P25098, S670A); test: Primary DSF (differential scanning fluorimetry) inhibitor screen, GRK2; assay type: binding; details: 10 μM compound; for ΔTm at 10 µM: read-out: ΔTm, primary screen, GRK2; for rank in the primary screen, GRK2: rank ordering of compounds in primary DSF screen
T2 construct: when using full-length kinases as the receptor[37] instead of isolated kinase domains; made in house
T2 sequence (P25098 1-689 S670A): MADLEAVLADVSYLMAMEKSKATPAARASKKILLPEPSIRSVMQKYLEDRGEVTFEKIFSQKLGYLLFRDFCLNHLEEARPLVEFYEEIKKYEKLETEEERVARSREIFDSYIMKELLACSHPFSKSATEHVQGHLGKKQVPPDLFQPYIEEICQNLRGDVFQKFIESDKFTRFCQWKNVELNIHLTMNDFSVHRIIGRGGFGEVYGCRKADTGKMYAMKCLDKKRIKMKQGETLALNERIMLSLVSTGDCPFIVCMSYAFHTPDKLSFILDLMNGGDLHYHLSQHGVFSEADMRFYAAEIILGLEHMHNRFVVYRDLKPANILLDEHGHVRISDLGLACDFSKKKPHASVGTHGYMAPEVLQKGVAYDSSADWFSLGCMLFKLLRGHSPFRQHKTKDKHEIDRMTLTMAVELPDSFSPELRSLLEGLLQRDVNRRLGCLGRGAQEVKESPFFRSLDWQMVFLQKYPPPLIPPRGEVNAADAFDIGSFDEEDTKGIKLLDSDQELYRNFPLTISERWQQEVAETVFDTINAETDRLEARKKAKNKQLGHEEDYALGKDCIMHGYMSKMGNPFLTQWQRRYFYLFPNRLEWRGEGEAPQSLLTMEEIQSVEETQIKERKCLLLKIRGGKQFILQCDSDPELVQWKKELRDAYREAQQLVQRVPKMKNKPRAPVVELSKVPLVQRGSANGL

[3] = molecular target: T3, GRK2 (Homo sapiens, UniProt P25098, S670A); test: DSF retest (confirmation), GRK2; assay type: binding; details: for GRK2 Tm: 0.2 mg mL^–1 kinase; for GRK2 ΔTm: relative to intrinsic melting point of the kinase
T3 construct: made in house
T3 sequence (P25098 1-689 S670A): T2 sequence (P25098 1-689 S670A)

[4] = molecular target: T4, GRK5 (Bos taurus, UniProt P43249); test: DSF retest (confirmation), GRK5; assay type: binding, bovine; details: for GRK5 Tm: 0.2 mg mL^–1 kinase; for GRK5 ΔTm: relative to intrinsic melting point of the kinase
T4 construct: when using full-length kinases as the receptor[37] instead of isolated kinase domains; made in house
T4 sequence (P43249 whole entry, the tested form may be a part): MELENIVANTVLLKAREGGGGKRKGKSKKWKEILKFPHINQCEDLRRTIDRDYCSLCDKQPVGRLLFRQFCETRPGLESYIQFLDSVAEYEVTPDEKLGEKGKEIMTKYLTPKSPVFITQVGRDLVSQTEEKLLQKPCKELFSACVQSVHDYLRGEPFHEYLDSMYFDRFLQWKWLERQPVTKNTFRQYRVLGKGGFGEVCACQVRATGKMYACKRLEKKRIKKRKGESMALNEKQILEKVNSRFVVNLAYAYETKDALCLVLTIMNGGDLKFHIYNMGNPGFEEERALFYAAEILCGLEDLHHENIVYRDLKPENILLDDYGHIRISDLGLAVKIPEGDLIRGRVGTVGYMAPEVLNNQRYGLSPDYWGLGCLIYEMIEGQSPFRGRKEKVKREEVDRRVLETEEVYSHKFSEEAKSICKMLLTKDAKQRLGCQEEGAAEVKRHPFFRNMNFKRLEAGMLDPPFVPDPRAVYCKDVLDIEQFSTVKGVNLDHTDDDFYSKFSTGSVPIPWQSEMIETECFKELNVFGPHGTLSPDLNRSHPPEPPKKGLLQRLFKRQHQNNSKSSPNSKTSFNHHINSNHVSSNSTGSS

[5] = tested on: 224 kinases; parameters: method as in ChEMBL database; details: ref ChEMBL database, cited from earlier work
[6] = molecular target: T5, GRK2 (Bos taurus, UniProt P21146, S670A); test: In vitro phosphorylation assay (tubulin, 5 μM ATP), GRK2; assay type: biochemical, bovine; details: for less potent than GSK180736A against GRK2: relative to GSK180736A; for IC50: read-out: GRK2 log IC50 (converted)
T5 construct: made in house
T5 sequence (P21146 1-689 S670A): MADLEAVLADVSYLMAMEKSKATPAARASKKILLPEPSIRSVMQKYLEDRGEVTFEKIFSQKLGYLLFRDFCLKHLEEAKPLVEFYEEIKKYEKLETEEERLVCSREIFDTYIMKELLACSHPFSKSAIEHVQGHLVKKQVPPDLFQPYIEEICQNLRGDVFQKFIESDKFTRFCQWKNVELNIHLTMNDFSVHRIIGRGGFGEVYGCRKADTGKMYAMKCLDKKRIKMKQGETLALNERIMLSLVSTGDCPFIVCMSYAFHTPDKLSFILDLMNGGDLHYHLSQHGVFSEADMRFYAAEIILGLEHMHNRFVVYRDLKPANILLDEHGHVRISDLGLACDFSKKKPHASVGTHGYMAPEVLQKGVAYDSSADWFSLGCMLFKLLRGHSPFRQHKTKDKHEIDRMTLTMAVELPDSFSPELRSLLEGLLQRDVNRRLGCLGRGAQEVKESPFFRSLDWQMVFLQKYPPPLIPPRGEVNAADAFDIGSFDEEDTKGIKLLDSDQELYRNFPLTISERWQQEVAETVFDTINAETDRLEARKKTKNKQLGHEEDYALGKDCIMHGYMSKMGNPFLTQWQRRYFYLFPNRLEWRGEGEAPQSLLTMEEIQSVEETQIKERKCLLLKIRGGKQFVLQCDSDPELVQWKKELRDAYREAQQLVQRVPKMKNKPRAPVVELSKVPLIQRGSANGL

[7] = molecular target: T6, GRK1 (Bos taurus, UniProt P28327); test: In vitro phosphorylation assay (tubulin, 5 μM ATP), GRK1; assay type: biochemical, bovine; details: for IC50: read-out: GRK1 log IC50 (converted)
T6 construct: Bovine GRK1_1–535, bovine and human GRK2S670A; made in house
T6 sequence (P28327 1-535): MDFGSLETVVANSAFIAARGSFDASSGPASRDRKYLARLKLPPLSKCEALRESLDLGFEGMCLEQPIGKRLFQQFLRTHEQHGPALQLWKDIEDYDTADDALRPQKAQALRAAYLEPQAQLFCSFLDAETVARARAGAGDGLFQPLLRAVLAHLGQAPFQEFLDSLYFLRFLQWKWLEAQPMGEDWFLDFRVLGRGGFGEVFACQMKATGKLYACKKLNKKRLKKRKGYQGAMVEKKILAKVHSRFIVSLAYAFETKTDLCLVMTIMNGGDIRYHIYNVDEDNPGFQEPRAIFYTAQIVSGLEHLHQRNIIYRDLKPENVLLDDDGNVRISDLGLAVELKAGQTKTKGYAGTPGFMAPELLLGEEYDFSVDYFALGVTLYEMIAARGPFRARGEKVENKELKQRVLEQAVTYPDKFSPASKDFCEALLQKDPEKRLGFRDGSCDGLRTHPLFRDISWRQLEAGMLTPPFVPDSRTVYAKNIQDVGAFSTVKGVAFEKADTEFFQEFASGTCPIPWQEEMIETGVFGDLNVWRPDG

[8] = molecular target: T6, GRK1; test: DSF retest (confirmation), GRK1; assay type: binding, bovine; details: for GRK1 Tm: 0.2 mg mL^–1 kinase; for GRK1 ΔTm: relative to intrinsic melting point of the kinase
[9] = tested on: GRK1, 2, and 5 and PKA; test: Ssel selectivity score calculated from inhibition of GRK1, 2, 5 and PKA; details: selectivity score from inhibition of GRK1, 2, 5 and PKA; <0.5 selective
[10] = molecular target: T7, protein kinase A (PKA) (Mus musculus, UniProt P05132); test: DSF retest (confirmation), PKA; assay type: binding; details: for PKA Tm: 0.2 mg mL^–1 kinase; for PKA ΔTm: relative to intrinsic melting point of the kinase
T7 construct: His tag (inferred from pET15b vector and Ni-NTA column) (N); host or cells: E. coli Rosetta(DE3)pLysS
Procedure: Fourteen compounds (Figure 1a–c), including all GRK2 hits except staurosporine, and the most stabilizing pyrrolopyrimidine-containing compounds were obtained from GSK and retested using DSF on GRKs representing each vertebrate subfamily (GRK1, 2, and 5) (Table 1). […] The ability of these compounds to shift the Tm of the related AGC family kinase member protein kinase A (PKA) was also assessed (Table 1). In no case was ΔTm greater for PKA than for one of the tested GRKs. […]. There was no correlation for GRK1 (Figure 2c).
DSF was conducted using a ThermoFluor plate reader (Johnson & Johnson) in a buffer containing 20 mM HEPES, pH 7.0, 5 mM MgCl2, 2 mM DTT, and 1 mM CHAPS with 0.2 mg mL^–1 final concentration of GRK or PKA and 100 μM 1-anilinonaphthalene-8-sulfonic acid.[14]

[11] = molecular target: T4, GRK5; test: In vitro phosphorylation assay (tubulin, 5 μM ATP), GRK5; assay type: biochemical, bovine; details: for IC50: read-out: GRK5 log IC50 (converted)
[12] = molecular target: T8, bovine GRK5 (Bos taurus, UniProt P43249); test: Primary DSF inhibitor screen, GRK5; assay type: binding; details: 10 μM compound; for ΔTm at 10 µM: read-out: ΔTm, primary screen, GRK5
T8 construct: when using full-length kinases as the receptor[37] instead of isolated kinase domains; made in house
T8 sequence (P43249 whole entry, the tested form may be a part): as the sequence (P43249 whole entry, the tested form may be a part) above

[13] = tested on: ROCK1; details: relative to GSK180736A (substitution effect); cited from earlier work
[14] = logarithm of IC50 (−3.3 corresponds to 0.5 mM, footnote c), 438 nM PKA, 100 μM ATP, CREBtide, read-out: PKA log IC50 (converted)
[15] = 2 μM kinase, relative to DMSO control

IC50 [1, 14]	ΔTm at 10 µM [2, 15]	rank in the primary screen, GRK2 [2]	GRK2 Tm [3]	GRK2 ΔTm [3]	GRK5 Tm [4]	GRK5 ΔTm [4]	less potent than GSK180736A against GRK2 [6]	GRK2 fold (increase in potency relative to paroxetine) [6]	GRK1 Tm [8]	GRK1 ΔTm [8]	PKA Tm [10]	PKA ΔTm [10]	GRK5 fold (increase in potency relative to paroxetine) [11]	ΔTm at 10 µM [12, 15]	IC50 [6]	IC50 [7]	IC50 [11]	Structure (SMILES)	Ssel [9]	further results
12.6 µM	2.94 °C	8	45.0 °C	7.4 °C	28.0 °C	1.3 °C	2 log	0.040 fold	24.6 °C	4.7 °C	50.6 °C	5.2 °C	3.2 fold	3.48 °C	–	–	–	CC1=C(C(=O)Nc2cc(Cl)c3[nH]ncc3c2)C(c2ccc(C(F)(F)F)cc2)CC(=O)N1 (centres unmarked) [GSK466317A]	1.001	IC50 ([1]; read-out: IC50 against PKA): < 100 µM; ΔTm, primary screen, GRK2 [2, 15]: 2.9 °C; number of other AGC kinases inhibited by more than 50% ([5]; at 1 μM): more than 10; GRK1 fold (increase in potency relative to paroxetine) ([7]; relative to paroxetine): 0 fold
> 501 µM	–	–	40.0 °C	2.5 °C	27.7 °C	0.9 °C	–	0.0063 fold	24.8 °C	4.9 °C	47.4 °C	2.0 °C	1.3 fold	6.93 °C	200 µM	> 1000 µM	100 µM	Fc1cccc(COc2ccc(Nc3ncnc4cc(-c5ccc[nH]5)sc34)cc2Cl)c1 [GW693881A]	1.005	inhibition pattern in kinase cross-screening, in words [5]: strong inhibition of many of the 221 kinases evaluated; ΔTm, primary screen, GRK5 [12, 15]: 6.9 °C; rank in the primary screen, GRK5 ([12]; rank ordering of compounds in primary DSF screen): 12
200 µM	3.78 °C	6	49.0 °C	11.4 °C	27.3 °C	0.6 °C	about 1 log	0.50 fold	23.2 °C	3.3 °C	45.9 °C	0.5 °C	0.20 fold	2.29 °C	2.51 µM	> 1000 µM	631 µM	CC1=C(C(=O)Nc2ccc3[nH]ncc3c2)C(c2ccc(F)cc2)NC(c2ccc(C(F)(F)F)nc2)=N1 (centres unmarked) [GSK317354A]	0.109	increase in potency of ROCK inhibition [13]: 10 fold
